Reference: PubChem BioAssay AID1918996 (Molecular Pharmacology Branch, DTP, NCI, 2023)
pIC50: −log10 of the molar value. Where “and” joins values, the source holds several entries; their conditions need not be identical. Equal entries are not always repeated.

Test system: 349418-098-R-PDC complex spheroid growth
Experiment: Anticancer human tumor 349418-098-R-PDC patient-derived lung adenocarcinoma cell line growth inhibition [AhR]
Settings: for viability, T/C: stronger effect = lower value; active means viability on the fitted dose curve at most 10% of control; inactive means the rest
Method in brief: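 Spheroids combined tumor cells with HUVEC endothelial cells and human MSCs as stroma. AhR antagonists were paired with standard or investigational drugs, each dosed in half-log steps down from near clinical Cmax, or from 10 microM where Cmax was unknown.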

[1] = curve of first compound, second compound 0.1 µM
[2] = curve of first compound, second compound 0.316 µM
[3] = curve of first compound, second compound 1 µM
[4] = curve of first compound, second compound 3.16 µM
[5] = curve of first compound, second compound 10 µM
[6] = second compound 0.1 µM, first compound 0.0316 µM
[7] = second compound 0.1 µM, first compound 0.1 µM
[8] = second compound 0.1 µM, first compound 0.316 µM
[9] = second compound 0.1 µM, first compound 1 µM
[10] = second compound 0.316 µM, first compound 0.0316 µM
[11] = second compound 0.316 µM, first compound 0.1 µM
[12] = second compound 0.316 µM, first compound 0.316 µM
[13] = second compound 0.316 µM, first compound 1 µM
[14] = second compound 1 µM, first compound 0.0316 µM
[15] = second compound 1 µM, first compound 0.1 µM
[16] = second compound 1 µM, first compound 0.316 µM
[17] = second compound 1 µM, first compound 1 µM
[18] = second compound 3.16 µM, first compound 0.0316 µM
[19] = second compound 3.16 µM, first compound 0.1 µM
[20] = second compound 3.16 µM, first compound 0.316 µM
[21] = second compound 3.16 µM, first compound 1 µM
[22] = second compound 10 µM, first compound 0.0316 µM
[23] = second compound 10 µM, first compound 0.1 µM
[24] = second compound 10 µM, first compound 0.316 µM
[25] = second compound 10 µM, first compound 1 µM
[26] = second compound 0.1 µM, first compound 3.16 µM
[27] = second compound 0.1 µM, first compound 10 µM
[28] = second compound 0.316 µM, first compound 3.16 µM
[29] = second compound 0.316 µM, first compound 10 µM
[30] = second compound 1 µM, first compound 3.16 µM
[31] = second compound 1 µM, first compound 10 µM
[32] = second compound 3.16 µM, first compound 3.16 µM
[33] = second compound 3.16 µM, first compound 10 µM
[34] = second compound 10 µM, first compound 3.16 µM
[35] = second compound 10 µM, first compound 10 µM
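Further: spheroids exposed to agents for seven days before luminescence viability read.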
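Wherever viability, T/C is given: spheroids also contain HUVEC endothelial cells and human MSC stroma.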

CC1COCCN1c1cc(-c2ccnn2C)c2ccnc(-c3ccn[nH]3)c2n1 (configuration not stated) + Cc1cncc(-c2nc(NCCc3c[nH]c4ccccc34)c3ncn(C(C)C)c3n2)c1
inactive: viability, T/C (second compound 0.1 µM, first compound 0.00316 µM) 105% | viability, T/C (second compound 0.1 µM, first compound 0.01 µM) 105% | viability, T/C [6] 99.7% | viability, T/C [7] 71.6% | viability, T/C [8] 13.1% | viability, T/C (second compound 0.316 µM, first compound 0.00316 µM) 90.9% | viability, T/C (second compound 0.316 µM, first compound 0.01 µM) 92.4% | viability, T/C [10] 91.4% | viability, T/C [11] 68.5% | viability, T/C [12] 15.7% | viability, T/C (second compound 1 µM, first compound 0.00316 µM) 74.1% | viability, T/C (second compound 1 µM, first compound 0.01 µM) 81.4% | viability, T/C [14] 81.5% | viability, T/C [15] 50.1% | viability, T/C [16] 13.2% | viability, T/C [17] 8.54% | viability, T/C (second compound 3.16 µM, first compound 0.00316 µM) 14.2% | viability, T/C (second compound 3.16 µM, first compound 0.01 µM) 15.1% | viability, T/C [18] 12.4%
> 8.50: pIC50 [4] | pIC50 [5]
active: viability, T/C [9] 7.48% | viability, T/C [13] 7.2% | viability, T/C [19] 7.18% | viability, T/C [20] 6.8% | viability, T/C [21] 5.72% | viability, T/C (second compound 10 µM, first compound 0.00316 µM) 0.74% | viability, T/C (second compound 10 µM, first compound 0.01 µM) 0.66% | viability, T/C [22] 0.7% | viability, T/C [23] 0.73% | viability, T/C [24] 0.69% | viability, T/C [25] 1.49%
6.82: pIC50 [1] | pIC50 [2]
7.00: pIC50 [3]

CC[C@@]1(O)C(=O)OCc2c1cc1n(c2=O)Cc2cc3c(CN(C)C)c(O)ccc3nc2-1
7.58 and 7.59 and 7.89: pIC50 (curve of compound)
inactive: viability, T/C (compound 0.000316 µM) 94.4% and 113% and 119% | viability, T/C (compound 0.001 µM) 97.3% and 89.4% and 89.3% | viability, T/C (compound 0.00316 µM) 93.6% and 63.5% and 81.3% | viability, T/C (compound 0.01 µM) 84.2% and 87.1% and 64% | viability, T/C (compound 0.0316 µM) 43.4% and 42.2% and 21.3% | viability, T/C (compound 0.1 µM) 15.3% and 21.5% and 13.5%

O=C(C=Cc1cccc(S(=O)(=O)Nc2ccccc2)c1)NO + Cc1ccccc1N=Nc1ccc(NC(=O)c2ccnn2C)c(C)c1
6.11: pIC50 [1]
6.17: pIC50 [4]
inactive: viability, T/C [6] 132% | viability, T/C [7] 119% | viability, T/C [8] 73% | viability, T/C [9] 47.6% | viability, T/C [26] 10.4% | viability, T/C [10] 126% | viability, T/C [11] 108% | viability, T/C [12] 82.8% | viability, T/C [13] 36.1% | viability, T/C [14] 109% | viability, T/C [15] 122% | viability, T/C [16] 69.3% | viability, T/C [17] 33.3% | viability, T/C [18] 94% | viability, T/C [19] 94.1% | viability, T/C [20] 78.3% | viability, T/C [21] 34.7% | viability, T/C [22] 74.7% | viability, T/C [23] 72.5% | viability, T/C [24] 50% | viability, T/C [25] 22.9%
6.48: pIC50 [5]
active: viability, T/C [27] 1.93% | viability, T/C [28] 8.81% | viability, T/C [29] 1.91% | viability, T/C [30] 8.25% | viability, T/C [31] 2.09% | viability, T/C [32] 8.53% | viability, T/C [33] 2.35% | viability, T/C [34] 8.56% | viability, T/C [35] 2.05%
6.15: pIC50 [2]
6.22: pIC50 [3]

NS(=O)(=O)OCC1CC(n2ccc3c(NC4CCc5ccccc54)ncnc32)CC1O (configuration not stated) + Cc1ccccc1N=Nc1ccc(NC(=O)c2ccnn2C)c(C)c1
inactive: viability, T/C [6] 96.6% | viability, T/C [7] 81.3% | viability, T/C [8] 46.1% | viability, T/C [9] 22.6% | viability, T/C [26] 11.4% | viability, T/C [27] 10.5% | viability, T/C [10] 75% | viability, T/C [11] 63.8% | viability, T/C [12] 39.2% | viability, T/C [13] 24.9% | viability, T/C [28] 11.8% | viability, T/C [14] 90.4% | viability, T/C [15] 71.1% | viability, T/C [16] 39% | viability, T/C [17] 23.5% | viability, T/C [30] 12% | viability, T/C [31] 10.1% | viability, T/C [18] 68.5% | viability, T/C [19] 58.1% | viability, T/C [20] 26.3% | viability, T/C [21] 20.2% | viability, T/C [32] 11.9% | viability, T/C [33] 9.47% | viability, T/C [22] 65.3% | viability, T/C [23] 38.9% | viability, T/C [24] 27.1% | viability, T/C [25] 18% | viability, T/C [34] 10.8%
6.54: pIC50 [1]
6.66: pIC50 [3]
6.88: pIC50 [4]
6.71: pIC50 [2]
active: viability, T/C [29] 10.2% | viability, T/C [35] 9.27%
7.20: pIC50 [5]

CC(C)CC(NC(=O)C(Cc1ccccc1)NC(=O)c1cnccn1)B(O)O (configuration not stated) + Cc1ccccc1N=Nc1ccc(NC(=O)c2ccnn2C)c(C)c1
active: viability, T/C (second compound 0.1 µM, first compound 0.00949 µM) 3.13% | viability, T/C (second compound 0.1 µM, first compound 0.03 µM) 1.55% | viability, T/C (second compound 0.1 µM, first compound 0.0949 µM) 1.77% | viability, T/C (second compound 0.1 µM, first compound 0.3 µM) 0.98% | viability, T/C (second compound 0.316 µM, first compound 0.00949 µM) 2.73% | viability, T/C (second compound 0.316 µM, first compound 0.03 µM) 1.61% | viability, T/C (second compound 0.316 µM, first compound 0.0949 µM) 1.03% | viability, T/C (second compound 0.316 µM, first compound 0.3 µM) 1.37% | viability, T/C (second compound 1 µM, first compound 0.00949 µM) 2.69% | viability, T/C (second compound 1 µM, first compound 0.03 µM) 1.87% | viability, T/C (second compound 1 µM, first compound 0.0949 µM) 1.39% | viability, T/C (second compound 1 µM, first compound 0.3 µM) 1.15% | viability, T/C (second compound 3.16 µM, first compound 0.00949 µM) 2.77% | viability, T/C (second compound 3.16 µM, first compound 0.03 µM) 1.76% | viability, T/C (second compound 3.16 µM, first compound 0.0949 µM) 1.72% | viability, T/C (second compound 3.16 µM, first compound 0.3 µM) 1.32% | viability, T/C (second compound 10 µM, first compound 0.00949 µM) 2.75% | viability, T/C (second compound 10 µM, first compound 0.03 µM) 1.8% | viability, T/C (second compound 10 µM, first compound 0.0949 µM) 1.43% | viability, T/C (second compound 10 µM, first compound 0.3 µM) 1.45%
8.97: pIC50 [4]
> 9.02: pIC50 [1] | pIC50 [2] | pIC50 [5]
inactive: viability, T/C (second compound 0.1 µM, first compound 0.000949 µM) 46.8% | viability, T/C (second compound 0.1 µM, first compound 0.003 µM) 11.1% | viability, T/C (second compound 0.316 µM, first compound 0.000949 µM) 48.2% | viability, T/C (second compound 0.316 µM, first compound 0.003 µM) 11.7% | viability, T/C (second compound 1 µM, first compound 0.000949 µM) 58.5% | viability, T/C (second compound 1 µM, first compound 0.003 µM) 13.4% | viability, T/C (second compound 3.16 µM, first compound 0.000949 µM) 53.7% | viability, T/C (second compound 3.16 µM, first compound 0.003 µM) 14% | viability, T/C (second compound 10 µM, first compound 0.000949 µM) 41.6% | viability, T/C (second compound 10 µM, first compound 0.003 µM) 14.5%
8.93: pIC50 [3]

CC1COCCN1c1cc(C2(S(C)(=N)=O)CC2)nc(-c2ccnc3[nH]ccc23)n1 (configuration not stated) + Cc1ccccc1N=Nc1ccc(NC(=O)c2ccnn2C)c(C)c1
5.99: pIC50 [5]
5.71: pIC50 [3]
5.70: pIC50 [2]
5.69: pIC50 [4]
inactive: viability, T/C [6] 87% | viability, T/C [7] 110% | viability, T/C [8] 86.5% | viability, T/C [9] 83.6% | viability, T/C [26] 31% | viability, T/C [27] 14.4% | viability, T/C [10] 87.8% | viability, T/C [11] 78% | viability, T/C [12] 78.6% | viability, T/C [13] 89.7% | viability, T/C [28] 27.7% | viability, T/C [29] 13.4% | viability, T/C [14] 89.2% | viability, T/C [15] 123% | viability, T/C [16] 86.8% | viability, T/C [17] 66.8% | viability, T/C [30] 39.9% | viability, T/C [31] 16% | viability, T/C [18] 90.8% | viability, T/C [19] 76.9% | viability, T/C [20] 97.9% | viability, T/C [21] 79.3% | viability, T/C [32] 31.8% | viability, T/C [33] 15.3% | viability, T/C [22] 69.5% | viability, T/C [23] 70.1% | viability, T/C [24] 56.6% | viability, T/C [25] 55.5% | viability, T/C [34] 28.9% | viability, T/C [35] 17.1%
5.68: pIC50 [1]
